Tests used:
Type in all cases: cell-based, human
MCF-7 cells = assay: XTT cell proliferation assay, MCF-7; settings: MCF-7, 72 h, 1-50 μM
Method: (§1) Human PDAC (AsPC-1, BxPC-3, Panc-1 scr, Panc-1 p53-R273H knock-out (KO) hTERT-HPNE), breast (MCF-7), lung (A549), and colon (HT-29) cancer cell lines were purchased from the American Type Culture Collection (ATCC). The MCF-7, A549, Panc-1 scr, Panc-1 p53 KO and HT-29 cell lines were grown in Dulbecco's Modified Eagle Medium (DMEM; Biological Industries, Beit HaEmek (BI), Israel), and the BxPC-3 and AsPC-1 cell lines were cultured in Roswell Park Memorial Institute-1640 (RPMI-1640; BI, Israel) medium. All media was supplemented with 10% fetal bovine serum (FBS), 200 μM L-glutamine (BI), and 1% penicillin-streptomycin (BI). Cells were cultured at 37° C. in a 5% CO2 humidified incubator.
(§2) Eravacycline dihydrochloride (MedChem Express (MCE)) was dissolved in […] (DDW). Tigecycline (MCE) and omadacycline (MCE) were dissolved in dimethyl sulphoxide (DMSO). All drugs were prepared as 100 mM stock solutions. All cell lines were treated with DMSO as a control (less than 0.1%) or tigecycline, omadacycline, or eravacycline (at the indicated concentrations) for 72 hours. Cell viability and proliferation were determined using the XTT Cell Proliferation Assay Kit (Promega).
(§3) The XTT Cell Proliferation Assay Kit was used to determine cell viability and proliferation. Cells were seeded in 96-well plates at a density of 4,000 cells per well and allowed to attach overnight in a 5% CO2 incubator at 37° C. […] After shaking the plate gently to distribute the dye in the wells, the absorbance was measured with a spectrophotometer (Bio-RadiMark Microplate Absorbance reader) at a wavelength of 450 nm and a reference wavelength of 655 nm.
(§4) To evaluate the half maximal inhibitory concentration (IC50) of tetracycline derivatives on five different cell lines (MCF-7, A549, HT-29, BxPC-3, and AsPC-1), the cells were seeded and allowed to attach overnight. […] Inhibition of cell proliferation was determined using the XTT Cell Proliferation Assay Kit. […]

HT-29 cells = assay: XTT cell proliferation assay, HT-29; settings: HT-29, 72 h, 1-50 μM
Method: as §1, §2, §3, §4

A549 cells = assay: XTT cell proliferation assay, A549; settings: A549, 72 h, 1-50 μM
Method: as §1, §2, §3, §4

BxPC-3 cells = assay: XTT cell proliferation assay, BxPC-3
Method: as §1, §2
(§5) The XTT Cell Proliferation Assay Kit was used to determine cell viability and proliferation. Cells were seeded in 96-well plates at a density of 4,000 cells per well and allowed to attach overnight in a 5% CO2 incubator at 37° C. After overnight incubation, cells were treated with culture medium or in a medium containing tigecycline, omadacycline, or eravacycline at different concentrations (1, 2, 5, 10, 25, and 50 μM) for the indicated time period. Then, 50 μl XTT reaction solution (0.1 ml activation solution+5 ml XTT reagent solution) was added to each well, and the plate was incubated at 37° C. for two hours. After shaking the plate gently to distribute the dye in the wells, the absorbance was measured with a spectrophotometer (Bio-RadiMark Microplate Absorbance reader) at a wavelength of 450 nm and a reference wavelength of 655 nm.
(§6) To evaluate the half maximal inhibitory concentration (IC50) of tetracycline derivatives on five different cell lines (MCF-7, A549, HT-29, BxPC-3, and AsPC-1), the cells were seeded and allowed to attach overnight. All cells were washed with phosphate buffered saline (PBS) and then cultured in fresh media containing the drugs tigecycline, omadacycline, or eravacycline at an increasing concentration (0-50 μM) for 72 h. Inhibition of cell proliferation was determined using the XTT Cell Proliferation Assay Kit.
(§7) To investigate the effect of tetracycline derivatives on cell proliferation in human breast, lung, colon, and PDAC cells, the inventors treated all cell lines (MCF-7, A549, HT-29, BxPC-3, and AsPC-1) with different concentrations of tigecycline, omadacycline, and eravacycline (1, 2, 5, 10, 25, and 50 μM), with medium used as a control, for 72 h. Then, an XTT assay was performed to determine the growth inhibition rate.

AsPC-1 cells = assay: XTT cell proliferation assay, AsPC-1
Method: as §1, §2, §5, §6, §7

POLK = assay: Western blot of POLK protein expression in BxPC-3 cells; settings: BxPC-3, 72 h, increasing concentrations
p53 (mutated in BxPC-3) = assay: Western blot of p53 protein expression in BxPC-3 cells; settings: BxPC-3, 72 h, increasing concentrations

Structure (SMILES)	effect on cell survival / proliferation (in words) (MCF-7 cells)	effect on cell survival / proliferation (in words) (HT-29 cells)	suppression of proliferation, up to (A549 cells; concentration-dependent)	suppression of proliferation, up to (BxPC-3 cells; BxPC-3, 72 h, concentration-dependent, 1-50 μM)	cytotoxicity at 25 µM (BxPC-3 cells; Homo sapiens, BXPC-3, 72 h, BxPC-3, 25 μM, 72 h, read-out: decrease in cell growth / viability) [%]	IC50 (BxPC-3 cells; Homo sapiens, BXPC-3, 72 h, read-out: IC50, inhibition of cell proliferation) [µM]	suppression of proliferation, up to (AsPC-1 cells; AsPC-1, 72 h, concentration-dependent, 1-50 μM)	IC50 (AsPC-1 cells; Homo sapiens, ASPC1, 72 h, read-out: IC50, inhibition of cell proliferation) [µM]	POLK protein expression vs control (POLK)	decrease in cell growth (BxPC-3 cells; BxPC-3, 1 μM, 72 h) [%]	decrease in cell growth (BxPC-3 cells; BxPC-3, 10 μM, 72 h) [%]	p53 protein expression vs control (p53 (mutated in BxPC-3))	effect on cell survival / proliferation (in words) (A549 cells)	effect on cell survival / viability (in words) (BxPC-3 cells; BxPC-3, 72 h, 1-50 μM)	effect on cell survival / viability (in words) (AsPC-1 cells; AsPC-1, 72 h, 1-50 μM)
CN(C)c1cc(NC(=O)CNC(C)(C)C)c(O)c2c1C[C@H]1C[C@H]3[C@H](N(C)C)C(O)=C(C(N)=O)C(=O)[C@@]3(O)C(O)=C1C2=O [tigecycline]	no significant effect	no significant effect	60-65%	60-65%	60	9.9	60-65%	4.58	–	–	–	–	–	–	–
COc1cccc2c1C(=O)c1c(O)c3c(c(O)c1C2=O)C[C@@](O)(C(=O)CO)C[C@@H]3O[C@H]1C[C@H](N)[C@H](O)[C@H](C)O1 [doxorubicin]	–	–	–	–	–	–	–	–	Neither gemcitabine nor doxorubicin reduced	67	94	Neither gemcitabine nor doxorubicin reduced	–	–	–
Nc1ccn([C@@H]2O[C@H](CO)[C@@H](O)C2(F)F)c(=O)n1 [gemcitabine]	–	–	–	–	–	–	–	–	Neither gemcitabine nor doxorubicin reduced	77	80	Neither gemcitabine nor doxorubicin reduced	–	–	–
CN(C)c1cc(CNCC(C)(C)C)c(O)c2c1C[C@H]1C[C@H]3[C@H](N(C)C)C(O)=C(C(N)=O)C(=O)[C@@]3(O)C(O)=C1C2=O [omadacycline]	no significant effect on cell survival	no significant effect on cell survival	–	–	–	–	–	–	–	–	–	–	no significant effect on cell survival	no significant effect on cell survival	no significant effect on cell survival
